The values below come from patent US8722727B2, “Antifungal agents” (Seynix, Inc., priority 2008, dated 2014).

T1 sequence (O13428 1-1897): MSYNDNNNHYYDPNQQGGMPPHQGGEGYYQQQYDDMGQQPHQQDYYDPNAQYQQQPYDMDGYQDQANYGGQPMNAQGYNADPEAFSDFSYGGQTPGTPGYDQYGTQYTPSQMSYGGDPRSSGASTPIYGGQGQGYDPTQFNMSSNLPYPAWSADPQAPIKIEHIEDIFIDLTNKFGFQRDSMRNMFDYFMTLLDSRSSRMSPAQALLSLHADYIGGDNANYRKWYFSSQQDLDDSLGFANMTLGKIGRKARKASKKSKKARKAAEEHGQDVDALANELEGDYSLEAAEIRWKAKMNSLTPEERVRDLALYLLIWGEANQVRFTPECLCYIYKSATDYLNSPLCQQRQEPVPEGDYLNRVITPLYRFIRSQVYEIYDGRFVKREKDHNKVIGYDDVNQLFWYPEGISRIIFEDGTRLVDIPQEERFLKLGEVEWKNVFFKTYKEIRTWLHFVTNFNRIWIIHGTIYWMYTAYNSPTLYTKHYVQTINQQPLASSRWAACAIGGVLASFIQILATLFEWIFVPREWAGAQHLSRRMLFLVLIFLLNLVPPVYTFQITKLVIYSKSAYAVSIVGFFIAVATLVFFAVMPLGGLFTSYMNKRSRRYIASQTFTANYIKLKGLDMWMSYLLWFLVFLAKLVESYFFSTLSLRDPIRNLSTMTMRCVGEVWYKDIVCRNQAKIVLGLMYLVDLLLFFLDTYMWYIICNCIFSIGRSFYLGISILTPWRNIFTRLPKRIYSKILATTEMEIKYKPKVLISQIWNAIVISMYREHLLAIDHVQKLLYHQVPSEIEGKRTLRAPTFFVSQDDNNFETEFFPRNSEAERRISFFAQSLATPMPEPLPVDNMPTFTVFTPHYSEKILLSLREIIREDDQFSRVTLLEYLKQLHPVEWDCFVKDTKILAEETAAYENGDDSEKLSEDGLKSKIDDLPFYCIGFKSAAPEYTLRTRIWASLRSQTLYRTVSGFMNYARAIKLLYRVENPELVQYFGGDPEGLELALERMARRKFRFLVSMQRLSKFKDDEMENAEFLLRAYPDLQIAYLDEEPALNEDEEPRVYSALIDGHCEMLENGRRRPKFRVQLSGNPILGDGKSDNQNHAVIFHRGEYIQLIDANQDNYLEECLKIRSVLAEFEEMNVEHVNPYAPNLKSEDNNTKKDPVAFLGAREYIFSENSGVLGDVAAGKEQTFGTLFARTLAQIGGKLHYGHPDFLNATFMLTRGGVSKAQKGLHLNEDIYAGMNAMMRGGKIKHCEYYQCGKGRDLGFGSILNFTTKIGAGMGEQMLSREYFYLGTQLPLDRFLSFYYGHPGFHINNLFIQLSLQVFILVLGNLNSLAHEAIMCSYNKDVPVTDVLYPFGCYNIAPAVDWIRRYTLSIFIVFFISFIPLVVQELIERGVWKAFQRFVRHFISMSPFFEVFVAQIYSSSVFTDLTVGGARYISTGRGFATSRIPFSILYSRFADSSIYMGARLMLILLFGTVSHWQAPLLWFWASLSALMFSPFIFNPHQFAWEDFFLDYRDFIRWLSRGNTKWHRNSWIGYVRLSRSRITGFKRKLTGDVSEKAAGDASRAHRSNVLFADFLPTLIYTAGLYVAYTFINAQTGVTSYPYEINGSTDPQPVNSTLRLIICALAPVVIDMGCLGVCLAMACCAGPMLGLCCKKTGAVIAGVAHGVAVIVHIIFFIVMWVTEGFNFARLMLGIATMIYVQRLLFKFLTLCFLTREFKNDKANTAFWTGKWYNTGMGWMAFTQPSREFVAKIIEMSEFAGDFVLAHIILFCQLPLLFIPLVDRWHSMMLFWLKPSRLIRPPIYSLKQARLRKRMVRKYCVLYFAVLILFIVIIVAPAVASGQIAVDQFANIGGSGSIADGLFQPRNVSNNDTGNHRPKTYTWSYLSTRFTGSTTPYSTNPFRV
T1 sequence (O42825 1-195 partner limits assumed): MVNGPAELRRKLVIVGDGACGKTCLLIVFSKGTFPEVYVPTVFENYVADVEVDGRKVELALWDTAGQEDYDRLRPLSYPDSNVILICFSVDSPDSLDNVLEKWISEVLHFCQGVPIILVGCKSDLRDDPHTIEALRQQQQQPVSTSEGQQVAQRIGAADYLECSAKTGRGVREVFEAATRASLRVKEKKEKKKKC

The test addresses T1, glucan synthase (GS) (Candida albicans, UniProt O13428).
T1 construct: Extraction of GS activity from membranes was performed at a protein concentration of 5 mg/mL in extraction buffer; endogenous in cells; host or cells: Candida albicans MY1055 (membrane fraction, detergent extraction, product entrapment)
The test is described as follows: Glucan synthase inhibition (polymerization assay, 96-well). In kind it is biochemical. The following applies: glucan synthase prepared from Candida albicans MY1055; 60 min incubation at 22° C.; read-out: Candida Albicans GS IC50 (ng/mL) (converted). In a few lines: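 Partially purified membrane glucan synthase from C. albicans MY1055, 60 min at 22° C with 0.5 mM 3H-UDPG, 25 μM GTP-γ-S, pH 7.5 HEPES, 25 mM KF. TCA-precipitated glucan filtered and scintillation counted; IC50 (ng/mL) from sigmoidal fit of duplicates over 3-fold dilutions.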
For `CC(C)[C@@H](C)[C@@]1(C)CC[C@]2(C)[C@H]3CC[C@@H]4[C@@]5(COC[C@@]4(C)[C@@H](OC[C@@H](C(C)C)N(C)C)[C@H](n4nnc(N)n4)C5)C3=CC[C@@]2(C)[C@@H]1C(=O)O` [Example 80, (1S,4aR,6aS,7R,8R,10aR,10bR,12aR,14R,15R)-14-(5-amino-2H-tetrazol-2-yl)-15-[[(2R)-2-(dimethylamino)-3-methylbutyl]oxy]-8-[(1R)-1,2-dimethylpropyl]-1,6,6a,7,8,9,10,10a,10b,11,12,12a-dodecahydro-1,6a,8,10a-tetramethyl-4H-1,4a-propano-2H-phenanthro[1,2-c]pyran-7-carboxylic acid], the IC50 was 5.98 nM. `CC(C)[C@@H](C)[C@@]1(C)CC[C@]2(C)[C@H]3CC[C@@H]4[C@@]5(COC[C@@]4(C)[C@@H](OC[C@@H](C4CC4)N(C)C)[C@H](n4nnc(N)n4)C5)C3=CC[C@@]2(C)[C@@H]1C(=O)O` [Example 83, (1S,4aR,6aS,7R,8R,10aR,10bR,12aR,14R,15R)-14-(5-amino-2H-tetrazol-2-yl)-15-[(2R)-2-cyclopropyl-2-(dimethylamino)ethoxy]-8-[(1R)-1,2-dimethylpropyl]-1,6,6a,7,8,9,10,10a,10b,11,12,12a-dodecahydro-1,6a,8,10a-tetramethyl-4H-1,4a-propano-2H-phenanthro[1,2-c]pyran-7-carboxylic acid]: the IC50 was 16.5 nM. Turning to `CC(C)[C@@H](C)[C@@]1(C)CC[C@]2(C)[C@H]3CC[C@@H]4[C@@]5(COC[C@@]4(C)[C@@H](OC[C@H](N)c4ccccc4)[C@H](n4nnc(N)n4)C5)C3=CC[C@@]2(C)[C@@H]1C(=O)O` [Example 88, (1S,4aR,6aS,7R,8R,10aR,10bR,12aR,14R,15R)-14-(5-amino-2H-tetrazol-2-yl)-15-[(2R)-2-amino-2-phenylethoxy]-8-[(1R)-1,2-dimethylpropyl]-1,6,6a,7,8,9,10,10a,10b,11,12,12a-dodecahydro-1,6a,8,10a-tetramethyl-4H-1,4a-propano-2H-phenanthro[1,2-c]pyran-7-carboxylic acid], the IC50 was 26.7 nM.

For the molecule `CC(C)[C@H](N)CO[C@H]1[C@H](n2nnc(N)n2)C[C@@]23COC[C@]1(C)[C@@H]2CC[C@H]1C3=CC[C@@]2(C)[C@H](C(=O)O)[C@@](C)([C@H](C)C(C)C)CC[C@]12C` [Example 93, (1S,4aR,6aS,7R,8R,10aR,10bR,12aR,14R,15R)-14-(5-amino-2H-tetrazol-2-yl)-15-[[(2S)-2-amino-3-methylbutyl]oxy]-8-[(1R)-1,2-dimethylpropyl]-1,6,6a,7,8,9,10,10a,10b,11,12,12a-dodecahydro-1,6a,8,10a-tetramethyl-4H-1,4a-propano-2H-phenanthro[1,2-c]pyran-7-carboxylic acid], the IC50 was 9.36 nM. As for `CCN[C@H](CO[C@H]1[C@H](n2nnc(N)n2)C[C@@]23COC[C@]1(C)[C@@H]2CC[C@H]1C3=CC[C@@]2(C)[C@H](C(=O)O)[C@@](C)([C@H](C)C(C)C)CC[C@]12C)C(C)(C)C` [Example 97, (1S,4aR,6aS,7R,8R,10aR,10bR,12aR,14R,15R)-14-(5-amino-2H-tetrazol-2-yl)-15-[[(2S)-2-(ethylamino)-3,3-dimethylbutyl]oxy]-8-[(1R)-1,2-dimethylpropyl]-1,6,6a,7,8,9,10,10a,10b,11,12,12a-dodecahydro-1,6a,8,10a-tetramethyl-4H-1,4a-propano-2H-phenanthro[1,2-c]pyran-7-carboxylic acid], the IC50 was 13.2 nM.

As for `CC[C@H](C)[C@@H](CO[C@H]1[C@H](n2nnc(N)n2)C[C@@]23COC[C@]1(C)[C@@H]2CC[C@H]1C3=CC[C@@]2(C)[C@H](C(=O)O)[C@@](C)([C@H](C)C(C)C)CC[C@]12C)N(C)C` [Example 101, (1S,4aR,6aS,7R,8R,10aR,10bR,12aR,14R,15R)-14-(5-amino-2H-tetrazol-2-yl)-15-[[(2S,3S)-2-(dimethylamino)-3-methylpentyl]oxy]-8-[(1R)-1,2-dimethylpropyl]-1,6,6a,7,8,9,10,10a,10b,11,12,12a-dodecahydro-1,6a,8,10a-tetramethyl-4H-1,4a-propano-2H-phenanthro[1,2-c]pyran-7-carboxylic acid], the IC50 is 11.7 nM. Then `CC(C)[C@@H](C)[C@@]1(C)CC[C@]2(C)[C@H]3CC[C@@H]4[C@@]5(COC[C@@]4(C)[C@@H](OCCN)[C@H](n4cnnn4)C5)C3=CC[C@@]2(C)[C@@H]1C(=O)O` [Example 104, (1S,4aR,6aS,7R,8R,10aR,10bR,12aR,14R,15R)-15-(2-aminoethoxy)-8-[(1R)-1,2-dimethylpropyl]-14-(1H-tetrazol-1-yl)-1,6,6a,7,8,9,10,10a,10b,11,12,12a-dodecahydro-1,6a,8,10a-tetramethyl-4H-1,4a-propano-2H-phenanthro[1,2-c]pyran-7-carboxylic acid], with 118 nM; and `CCNC(C)(COC1C(n2ncnn2)CC23COCC1(C)C2CCC1C3=CCC2(C)C(C(=O)O)C(C)(C(C)C(C)C)CCC12C)C(C)C` [Example 109, (1S,4aR,6aS,7R,8R,10aR,10bR,12aR,14R,15R)-8-[(1R)-1,2-dimethylpropyl]-15-[[(25)-2-(ethylamino)-2,3-dimethylbutyl]oxy]-14-(2H-tetrazol-2-yl)-1,6,6a,7,8,9,10,10a,10b,11,12,12a-dodecahydro-1,6a,8,10a-tetramethyl-4H-1,4a-propano-2H-phenanthro[1,2-c]pyran-7-carboxylic acid], with 46.4 nM. Then `CN[C@](C)(CO[C@H]1[C@H](n2nnc(N)n2)C[C@@]23COC[C@]1(C)[C@@H]2CC[C@H]1C3=CC[C@@]2(C)[C@H](C(=O)O)[C@@](C)([C@H](C)C(C)C)CC[C@]12C)C(C)(C)C` [Example 112, (1S,4aR,6aS,7R,8R,10aR,10bR,12aR,14R,15R)-14-(5-amino-2H-tetrazol-2-yl)-8-[(1R)-1,2-dimethylpropyl]-15-[[(2S)-2,3,3-trimethyl-2-(methylamino)butyl]oxy]-1,6,6a,7,8,9,10,10a,10b,11,12,12a-dodecahydro-1,6a,8,10a-tetramethyl-4H-1,4a-propano-2H-phenanthro[1,2-c]pyran-7-carboxylic acid], with 8.78 nM. For `CC(C)[C@@H](C)[C@@]1(C)CC[C@]2(C)[C@H]3CC[C@@H]4[C@@]5(COC[C@@]4(C)[C@@H](OCCN(C)C)[C@H](n4nnc(N)n4)C5)C3=CC[C@@]2(C)[C@@H]1C(=O)O` [Example 114, (1S,4aR,6aS,7R,8R,10aR,10bR,12aR,14R,15R)-14-(5-amino-2H-tetrazol-2-yl)-15-[2-(dimethylamino)ethoxy]-8-[(1R)-1,2-dimethylpropyl]-1,6,6a,7,8,9,10,10a,10b,11,12,12a-dodecahydro-1,6a,8,10a-tetramethyl-4H-1,4a-propano-2H-phenanthro[1,2-c]pyran-7-carboxylic acid], the IC50 is 19.1 nM.

On to `CCCCCC(C)(CO[C@H]1[C@H](n2nnc(N)n2)C[C@@]23COC[C@]1(C)[C@@H]2CC[C@H]1C3=CC[C@@]2(C)[C@H](C(=O)O)[C@@](C)([C@H](C)C(C)C)CC[C@]12C)NCCC` (stereo partly drawn) [Example 120, (1S,4aR,6aS,7R,8R,10aR,10bR,12aR,14R,15R)-14-(5-amino-2H-tetrazol-2-yl)-8-[(1R)-1,2-dimethylpropyl]-15-[[2-methyl-2-(propylamino)heptyl]oxy]-1,6,6a,7,8,9,10,10a,10b,11,12,12a-dodecahydro-1,6a,8,10a-tetramethyl-4H-1,4a-propano-2H-phenanthro[1,2-c]pyran-7-carboxylic acid], for which the IC50 was 60.7 nM. For the molecule `CC(C)[C@@H](C)[C@@]1(C)CC[C@]2(C)[C@H]3CC[C@@H]4[C@@]5(COC[C@@]4(C)[C@@H](OCC(C)(N)CCO)[C@H](n4nnc(N)n4)C5)C3=CC[C@@]2(C)[C@@H]1C(=O)O` (stereo partly drawn) [Example 122, (1S,4aR,6aS,7R,8R,10aR,10bR,12aR,14R,15R)-15-(2-amino-4-hydroxy-2-methylbutoxy)-14-(5-amino-2H-tetrazol-2-yl)-8-[(1R)-1,2-dimethylpropyl]-1,6,6a,7,8,9,10,10a,10b,11,12,12a-dodecahydro-1,6a,8,10a-tetramethyl-4H-1,4a-propano-2H-phenanthro[1,2-c]pyran-7-carboxylic acid], the IC50 is 16.7 nM.

`CCN(C)C(C)(CCOC)CO[C@H]1[C@H](n2nnc(N)n2)C[C@@]23COC[C@]1(C)[C@@H]2CC[C@H]1C3=CC[C@@]2(C)[C@H](C(=O)O)[C@@](C)([C@H](C)C(C)C)CC[C@]12C` (stereo partly drawn) [Example 127, (1S,4aR,6aS,7R,8R,10aR,10bR,12aR,14R,15R)-14-(5-amino-2H-tetrazol-2-yl)-8-[(1R)-1,2-dimethylpropyl]-15-[2-(ethylmethylamino)-4-methoxy-2-methylbutoxy]-1,6,6a,7,8,9,10,10a,10b,11,12,12a-dodecahydro-1,6a,8,10a-tetramethyl-4H-1,4a-propano-2H-phenanthro[1,2-c]pyran-7-carboxylic acid]: the IC50 was 30.9 nM.

Regarding `CNC(C)(CCF)CO[C@H]1[C@H](n2nnc(N)n2)C[C@@]23COC[C@]1(C)[C@@H]2CC[C@H]1C3=CC[C@@]2(C)[C@H](C(=O)O)[C@@](C)([C@H](C)C(C)C)CC[C@]12C` (stereo partly drawn) [Example 129, (1S,4aR,6aS,7R,8R,10aR,10bR,12aR,14R,15R)-14-(5-amino-2H-tetrazol-2-yl)-8-[(1R)-1,2-dimethylpropyl]-15-[4-fluoro-2-methyl-2-(methylamino)butoxy]-1,6,6a,7,8,9,10,10a,10b,11,12,12a-dodecahydro-1,6a,8,10a-tetramethyl-4H-1,4a-propano-2H-phenanthro[1,2-c]pyran-7-carboxylic acid], the IC50 is 7.43 nM.
